Source: PubChem BioAssay (NCI)
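Growth conditions: 96-well plates. Treatment: test compound, 48 hours, 5 concentrations. Analysis: linear interpolation between bracketing concentrations; unreached endpoints set to highest concentration. At the TGI there is no net growth.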

Experiments:
Experiment in all cases: NCI anticancer screen, dose series, 48 h
PC-3 prostate = system: PC-3 prostate
IGROV1 ovarian = system: IGROV1 ovarian
MDA-MB-435 = system: MDA-MB-435
SK-MEL-2 melanoma = system: SK-MEL-2 melanoma
HCC-2998 colon = system: HCC-2998 colon
A549 NSCLC = system: A549 NSCLC
EKVX NSCLC = system: EKVX NSCLC
HCT-15 colon = system: HCT-15 colon
BT-549 breast = system: BT-549 breast
COLO 205 colon = system: COLO 205 colon
M14 melanoma = system: M14 melanoma
KM12 colon = system: KM12 colon
NCI-H460 lung = system: NCI-H460 lung
SNB-19 CNS = system: SNB-19 CNS
UACC-257 melanoma = system: UACC-257 melanoma
HS 578T breast = system: HS 578T breast
OVCAR-8 ovarian = system: OVCAR-8 ovarian
HT29 colon = system: HT29 colon
K-562 leukemia = system: K-562 leukemia
OVCAR-5 ovarian = system: OVCAR-5 ovarian
SF-539 CNS = system: SF-539 CNS
MALME-3M melanoma = system: MALME-3M melanoma
OVCAR-3 ovarian = system: OVCAR-3 ovarian
SK-MEL-5 melanoma = system: SK-MEL-5 melanoma
NCI-H226 lung = system: NCI-H226 lung
MCF7 breast = system: MCF7 breast
HOP-62 NSCLC = system: HOP-62 NSCLC
SW-620 colon = system: SW-620 colon
TK-10 renal = system: TK-10 renal
CCRF-CEM leukemia = system: CCRF-CEM leukemia
SK-MEL-28 melanoma = system: SK-MEL-28 melanoma
ACHN renal = system: ACHN renal
HCT-116 colon = system: HCT-116 colon
786-0 renal = system: 786-0 renal
SNB-75 CNS = system: SNB-75 CNS
MDA-MB-231 breast = system: MDA-MB-231 breast
T-47D breast = system: T-47D breast
SF-295 CNS = system: SF-295 CNS
A498 renal = system: A498 renal
LOX IMVI melanoma = system: LOX IMVI melanoma
UO-31 renal = system: UO-31 renal
MDA-N = system: MDA-N
DU-145 prostate = system: DU-145 prostate
SR leukemia = system: SR leukemia
U251 CNS = system: U251 CNS
NCI/ADR-RES ovarian = system: NCI/ADR-RES ovarian
HOP-92 NSCLC = system: HOP-92 NSCLC
UACC-62 melanoma = system: UACC-62 melanoma
NCI-H23 lung = system: NCI-H23 lung
OVCAR-4 ovarian = system: OVCAR-4 ovarian
MOLT-4 leukemia = system: MOLT-4 leukemia
SN12C renal = system: SN12C renal
CAKI-1 renal = system: CAKI-1 renal
NCI-H522 lung = system: NCI-H522 lung
SK-OV-3 ovarian = system: SK-OV-3 ovarian
HL-60(TB) leukemia = system: HL-60(TB) leukemia
RPMI-8226 leukemia = system: RPMI-8226 leukemia
RXF 393 renal = system: RXF 393 renal

**Q.** What does the source list for `Cc1n[nH]c(=O)n1N1C(=O)c2ccccc2C1=O`?
**A.** TGI (PC-3 prostate): > 100 µM; TGI (IGROV1 ovarian): > 100 µM; TGI (MDA-MB-435): > 100 µM; TGI (SK-MEL-2 melanoma): > 100 µM; TGI (HCC-2998 colon): > 100 µM; TGI (A549 NSCLC): > 100 µM; TGI (EKVX NSCLC): > 100 µM; TGI (HCT-15 colon): > 100 µM; TGI (BT-549 breast): > 100 µM; TGI (COLO 205 colon): > 100 µM; TGI (M14 melanoma): > 100 µM; TGI (KM12 colon): > 100 µM; TGI (NCI-H460 lung): > 100 µM; TGI (SNB-19 CNS): > 100 µM; TGI (UACC-257 melanoma): > 100 µM; TGI (HS 578T breast): > 100 µM; TGI (OVCAR-8 ovarian): > 100 µM; TGI (HT29 colon): > 100 µM; TGI (K-562 leukemia): > 100 µM; TGI (OVCAR-5 ovarian): > 100 µM; TGI (SF-539 CNS): > 100 µM; TGI (MALME-3M melanoma): > 100 µM; TGI (OVCAR-3 ovarian): > 100 µM; TGI (SK-MEL-5 melanoma): > 100000 nM; TGI (NCI-H226 lung): > 100 µM; TGI (MCF7 breast): > 100 µM; TGI (HOP-62 NSCLC): > 100 µM; TGI (SW-620 colon): > 100 µM; TGI (TK-10 renal): > 100 µM; TGI (CCRF-CEM leukemia): > 100 µM; TGI (SK-MEL-28 melanoma): > 100 µM; TGI (ACHN renal): > 100000 nM; TGI (HCT-116 colon): > 100 µM; TGI (786-0 renal): > 100 µM; TGI (SNB-75 CNS): > 100 µM; TGI (MDA-MB-231 breast): > 100 µM; TGI (T-47D breast): > 100 µM; TGI (SF-295 CNS): > 100 µM; TGI (A498 renal): > 100 µM; TGI (LOX IMVI melanoma): > 100 µM; TGI (UO-31 renal): > 100 µM; TGI (MDA-N): > 100 µM; TGI (DU-145 prostate): > 100 µM; TGI (SR leukemia): > 100 µM; TGI (U251 CNS): > 100 µM; TGI (NCI/ADR-RES ovarian): > 100 µM; TGI (HOP-92 NSCLC): > 100 µM; TGI (UACC-62 melanoma): > 100 µM; TGI (NCI-H23 lung): > 100 µM; TGI (OVCAR-4 ovarian): > 100 µM; TGI (MOLT-4 leukemia): > 100 µM; TGI (SN12C renal): > 100 µM; TGI (CAKI-1 renal): > 100 µM

**Q.** With `Cc1c2cccc-2c(OCCO)cc2c1[nH]c1ccccc12` as the compound, how does the TGI (PC-3 prostate) read?
**A.** Its TGI is 7.89 µM.

**Q.** And the TGI (IGROV1 ovarian)?
**A.** Its TGI is 8.92 µM.

**Q.** What about the TGI (MDA-MB-435) of the same compound?
**A.** Its TGI is 15.8 µM.

**Q.** And the TGI (SK-MEL-2 melanoma)?
**A.** The TGI was 12 µM.

**Q.** And the TGI (HCC-2998 colon)?
**A.** Its TGI is 12.1 µM.

**Q.** And the TGI (A549 NSCLC)?
**A.** Its TGI is 11.6 µM.

**Q.** What about the TGI (EKVX NSCLC) of the same compound?
**A.** The TGI was 5.18 µM.

**Q.** What about the TGI (HCT-15 colon) of the same compound?
**A.** The TGI was 22.9 µM.

**Q.** What about the TGI (BT-549 breast) of the same compound?
**A.** The TGI was 7.34 µM.

**Q.** And the TGI (COLO 205 colon)?
**A.** The TGI was 9.4 µM.

**Q.** What about the TGI (M14 melanoma) of the same compound?
**A.** Its TGI is 4.36 µM.

**Q.** What about the TGI (KM12 colon) of the same compound?
**A.** The TGI was 7.04 µM.

**Q.** What about the TGI (NCI-H460 lung) of the same compound?
**A.** The TGI was 18.3 µM.

**Q.** What about the TGI (SNB-19 CNS) of the same compound?
**A.** Its TGI is 18.6 µM.

**Q.** What about the TGI (UACC-257 melanoma) of the same compound?
**A.** Its TGI is 10.7 µM.

**Q.** What about the TGI (HS 578T breast) of the same compound?
**A.** Its TGI is greater than 49.6 µM.

**Q.** What about the TGI (NCI-H522 lung) of the same compound?
**A.** The TGI was 5.38 µM.

**Q.** And the TGI (SK-OV-3 ovarian)?
**A.** Its TGI is 14.4 µM.

**Q.** What about the TGI (OVCAR-8 ovarian) of the same compound?
**A.** The TGI was 15.7 µM.

**Q.** What about the TGI (HT29 colon) of the same compound?
**A.** Its TGI is 14.2 µM.

**Q.** What about the TGI (K-562 leukemia) of the same compound?
**A.** Its TGI is greater than 24.3 µM.

**Q.** And the TGI (OVCAR-5 ovarian)?
**A.** Its TGI is 5.83 µM.

**Q.** And the TGI (SF-539 CNS)?
**A.** Its TGI is 3.5 µM.

**Q.** And the TGI (MALME-3M melanoma)?
**A.** The TGI was 3.49 µM.

**Q.** What about the TGI (OVCAR-3 ovarian) of the same compound?
**A.** The TGI was 3.75 µM.

**Q.** And the TGI (SK-MEL-5 melanoma)?
**A.** Its TGI is 2950 nM.

**Q.** And the TGI (NCI-H226 lung)?
**A.** Its TGI is 21 µM.

**Q.** And the TGI (MCF7 breast)?
**A.** The TGI was 19.4 µM.

**Q.** What about the TGI (HOP-62 NSCLC) of the same compound?
**A.** The TGI was 14.5 µM.

**Q.** And the TGI (SW-620 colon)?
**A.** Its TGI is greater than 74.7 µM.

**Q.** And the TGI (TK-10 renal)?
**A.** Its TGI is 14.2 µM.

**Q.** And the TGI (CCRF-CEM leukemia)?
**A.** The TGI was greater than 29.6 µM.

**Q.** What about the TGI (SK-MEL-28 melanoma) of the same compound?
**A.** The TGI was 20.6 µM.

**Q.** What about the TGI (ACHN renal) of the same compound?
**A.** Its TGI is 2720 nM.

**Q.** And the TGI (HL-60(TB) leukemia)?
**A.** The TGI was greater than 19.9 µM.

**Q.** What about the TGI (HCT-116 colon) of the same compound?
**A.** Its TGI is greater than 23.2 µM.

**Q.** And the TGI (786-0 renal)?
**A.** The TGI was 7.14 µM.

**Q.** And the TGI (RPMI-8226 leukemia)?
**A.** Its TGI is 8.52 µM.

**Q.** And the TGI (SNB-75 CNS)?
**A.** Its TGI is 3.95 µM.

**Q.** And the TGI (MDA-MB-231 breast)?
**A.** Its TGI is 6.56 µM.

**Q.** What about the TGI (T-47D breast) of the same compound?
**A.** Its TGI is 24.2 µM.

**Q.** And the TGI (SF-295 CNS)?
**A.** The TGI was 14.7 µM.

**Q.** What about the TGI (RXF 393 renal) of the same compound?
**A.** The TGI was 5.37 µM.

**Q.** And the TGI (A498 renal)?
**A.** Its TGI is greater than 31.6 µM.

**Q.** What about the TGI (LOX IMVI melanoma) of the same compound?
**A.** Its TGI is 4.97 µM.

**Q.** What about the TGI (UO-31 renal) of the same compound?
**A.** Its TGI is 3.09 µM.

**Q.** And the TGI (MDA-N)?
**A.** The TGI was 7.9 µM.

**Q.** What about the TGI (DU-145 prostate) of the same compound?
**A.** Its TGI is greater than 50.1 µM.

**Q.** What about the TGI (U251 CNS) of the same compound?
**A.** Its TGI is 3.78 µM.

**Q.** What about the TGI (NCI/ADR-RES ovarian) of the same compound?
**A.** The TGI was greater than 23.4 µM.

**Q.** And the TGI (HOP-92 NSCLC)?
**A.** Its TGI is greater than 28.7 µM.

**Q.** And the TGI (UACC-62 melanoma)?
**A.** The TGI was 8.71 µM.

**Q.** What about the TGI (NCI-H23 lung) of the same compound?
**A.** The TGI was 12.3 µM.

**Q.** What about the TGI (OVCAR-4 ovarian) of the same compound?
**A.** The TGI was 13.5 µM.

**Q.** And the TGI (MOLT-4 leukemia)?
**A.** The TGI was 20.1 µM.

**Q.** What about the TGI (SN12C renal) of the same compound?
**A.** Its TGI is 11.8 µM.

**Q.** And the TGI (CAKI-1 renal)?
**A.** Its TGI is 3.67 µM.
